From patent publication US20230312752A1 (Brown University, priority 2021, published 2023)
Counter-ions that a name gives are not always drawn.

Columns and labels:
[1] = target: CDK1 (Homo sapiens, UniProt P06493); conditions: cited from earlier work
[2] = target: CDK9 (Homo sapiens, UniProt P50750); set-up: key: + is used to indicate the potency of the inhibitor; ++++ > +++ > ++ > +; + is used to indicate the potency of the inhibitor; ++++ > +++ > ++ > +; + is used to indicate the potency of the inhibitor; ++++ > +++ > ++ > +; + is used to indicate the potency of the inhibitor; ++++ > +++ > ++ > +; ◯ refers to compounds with inhibitory effects on the related isoform, but without specific value; conditions: cited from earlier work
CDK9, sequence (P50750 whole entry, canonical isoform): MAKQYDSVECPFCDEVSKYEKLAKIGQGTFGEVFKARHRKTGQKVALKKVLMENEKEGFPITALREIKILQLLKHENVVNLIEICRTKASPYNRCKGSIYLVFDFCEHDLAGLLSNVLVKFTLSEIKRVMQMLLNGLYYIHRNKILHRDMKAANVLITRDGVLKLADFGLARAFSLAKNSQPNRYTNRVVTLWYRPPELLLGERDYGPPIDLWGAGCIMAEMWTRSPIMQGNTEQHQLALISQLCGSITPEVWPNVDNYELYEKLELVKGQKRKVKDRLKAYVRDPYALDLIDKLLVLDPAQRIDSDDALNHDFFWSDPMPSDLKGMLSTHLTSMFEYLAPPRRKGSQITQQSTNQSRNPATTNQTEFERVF
CDK9, sequence (O60563 whole entry, further chain, canonical isoform): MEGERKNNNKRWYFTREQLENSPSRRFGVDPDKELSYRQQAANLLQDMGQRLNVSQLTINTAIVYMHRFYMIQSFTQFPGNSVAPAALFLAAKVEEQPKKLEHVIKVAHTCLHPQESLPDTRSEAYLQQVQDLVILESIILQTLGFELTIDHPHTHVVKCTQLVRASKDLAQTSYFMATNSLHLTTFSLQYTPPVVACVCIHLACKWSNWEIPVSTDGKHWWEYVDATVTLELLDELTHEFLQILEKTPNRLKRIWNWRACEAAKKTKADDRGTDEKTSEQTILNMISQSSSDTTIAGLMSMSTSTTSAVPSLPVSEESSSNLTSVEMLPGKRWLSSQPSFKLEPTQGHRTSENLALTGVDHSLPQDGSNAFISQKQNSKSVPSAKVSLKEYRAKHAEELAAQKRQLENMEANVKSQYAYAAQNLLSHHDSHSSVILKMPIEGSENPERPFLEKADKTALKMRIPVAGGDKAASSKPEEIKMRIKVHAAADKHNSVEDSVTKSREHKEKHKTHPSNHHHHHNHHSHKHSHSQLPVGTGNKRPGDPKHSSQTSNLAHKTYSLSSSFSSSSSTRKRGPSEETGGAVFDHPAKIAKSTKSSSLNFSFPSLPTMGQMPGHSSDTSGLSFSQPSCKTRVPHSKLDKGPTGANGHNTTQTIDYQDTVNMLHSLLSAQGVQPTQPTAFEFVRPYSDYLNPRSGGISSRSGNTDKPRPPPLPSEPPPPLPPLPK

[3] = target: CDK4 (Homo sapiens, UniProt P11802); conditions: cited from earlier work
CDK4, sequence (P11802 whole entry, species assumed): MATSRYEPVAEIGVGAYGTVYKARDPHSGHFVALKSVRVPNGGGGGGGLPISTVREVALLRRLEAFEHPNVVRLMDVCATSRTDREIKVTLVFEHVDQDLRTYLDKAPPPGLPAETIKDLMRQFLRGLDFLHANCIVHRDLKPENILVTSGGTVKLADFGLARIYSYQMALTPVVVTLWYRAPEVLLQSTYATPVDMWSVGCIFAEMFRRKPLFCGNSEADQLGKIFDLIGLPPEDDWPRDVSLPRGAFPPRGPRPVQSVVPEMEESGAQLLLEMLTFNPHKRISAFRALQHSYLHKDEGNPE
CDK4, sequence (P24385 whole entry partner, species assumed): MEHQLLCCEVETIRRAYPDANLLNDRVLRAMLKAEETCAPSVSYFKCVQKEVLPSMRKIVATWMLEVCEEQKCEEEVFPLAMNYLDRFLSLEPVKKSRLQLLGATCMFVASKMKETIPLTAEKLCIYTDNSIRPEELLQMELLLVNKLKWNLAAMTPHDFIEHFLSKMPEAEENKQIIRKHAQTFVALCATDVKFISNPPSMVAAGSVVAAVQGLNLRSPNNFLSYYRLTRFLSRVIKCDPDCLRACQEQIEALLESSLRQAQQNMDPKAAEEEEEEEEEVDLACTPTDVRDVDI

[4] = target: CDK5 (Homo sapiens, UniProt Q00535); conditions: cited from earlier work
CDK5, sequence (Q15078 99-307): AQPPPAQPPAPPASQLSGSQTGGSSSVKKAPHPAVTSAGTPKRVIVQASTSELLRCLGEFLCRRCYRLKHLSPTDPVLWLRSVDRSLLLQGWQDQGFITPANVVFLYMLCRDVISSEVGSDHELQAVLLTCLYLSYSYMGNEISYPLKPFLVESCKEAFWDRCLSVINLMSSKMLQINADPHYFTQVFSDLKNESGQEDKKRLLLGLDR
CDK5, sequence (Q00535 whole entry): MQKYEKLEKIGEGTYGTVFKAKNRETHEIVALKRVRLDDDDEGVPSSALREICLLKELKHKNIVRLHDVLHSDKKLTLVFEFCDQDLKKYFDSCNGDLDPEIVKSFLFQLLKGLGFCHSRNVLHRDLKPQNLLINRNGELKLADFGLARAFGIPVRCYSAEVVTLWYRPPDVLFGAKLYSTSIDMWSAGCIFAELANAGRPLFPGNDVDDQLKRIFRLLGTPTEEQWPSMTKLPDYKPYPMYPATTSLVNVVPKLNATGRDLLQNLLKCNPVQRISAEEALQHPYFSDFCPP

[5] = target: CDK6 (Homo sapiens, UniProt Q00534); set-up: key to the marks not given beside the values; conditions: cited from earlier work
CDK6, sequence (Q00534 whole entry): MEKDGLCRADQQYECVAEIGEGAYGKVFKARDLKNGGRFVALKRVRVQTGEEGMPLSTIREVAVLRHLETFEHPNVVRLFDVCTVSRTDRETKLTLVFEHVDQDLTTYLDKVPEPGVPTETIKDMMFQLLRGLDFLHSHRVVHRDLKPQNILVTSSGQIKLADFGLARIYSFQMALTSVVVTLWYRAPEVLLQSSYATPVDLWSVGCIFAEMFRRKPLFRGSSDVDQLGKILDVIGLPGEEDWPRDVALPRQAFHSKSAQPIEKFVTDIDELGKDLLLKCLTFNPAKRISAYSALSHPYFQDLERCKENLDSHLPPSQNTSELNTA
CDK6, sequence (P30281 whole entry, further chain): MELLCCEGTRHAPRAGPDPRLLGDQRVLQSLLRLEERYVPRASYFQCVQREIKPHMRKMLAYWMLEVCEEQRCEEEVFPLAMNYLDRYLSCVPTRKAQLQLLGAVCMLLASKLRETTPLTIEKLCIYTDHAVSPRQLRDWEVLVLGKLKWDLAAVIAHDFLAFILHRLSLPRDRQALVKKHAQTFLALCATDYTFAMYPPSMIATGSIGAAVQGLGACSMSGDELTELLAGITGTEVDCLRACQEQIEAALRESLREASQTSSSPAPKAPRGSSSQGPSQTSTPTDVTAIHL

[6] = target: CDK2 (Homo sapiens, UniProt P24941); conditions: cited from earlier work
[7] = test system: ACE2; type: cell-based, human
[8] = test system: TMPRSS2, CTSL and FURIN; type: cell-based, human
[9] = target: CDK7 (Homo sapiens, UniProt P50613); conditions: cited from earlier work
CDK7, sequence (P50613 whole entry, canonical isoform): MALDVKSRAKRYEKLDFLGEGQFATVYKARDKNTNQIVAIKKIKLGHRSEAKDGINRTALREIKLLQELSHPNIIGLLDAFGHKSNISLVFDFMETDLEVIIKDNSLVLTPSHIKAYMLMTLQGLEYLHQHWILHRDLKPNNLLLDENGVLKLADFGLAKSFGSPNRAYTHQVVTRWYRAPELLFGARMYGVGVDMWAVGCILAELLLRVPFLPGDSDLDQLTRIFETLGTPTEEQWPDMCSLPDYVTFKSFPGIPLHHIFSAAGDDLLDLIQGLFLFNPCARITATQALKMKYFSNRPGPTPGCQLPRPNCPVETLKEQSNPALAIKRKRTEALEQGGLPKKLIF
CDK7, sequence (P51946 whole entry, further chain, canonical isoform): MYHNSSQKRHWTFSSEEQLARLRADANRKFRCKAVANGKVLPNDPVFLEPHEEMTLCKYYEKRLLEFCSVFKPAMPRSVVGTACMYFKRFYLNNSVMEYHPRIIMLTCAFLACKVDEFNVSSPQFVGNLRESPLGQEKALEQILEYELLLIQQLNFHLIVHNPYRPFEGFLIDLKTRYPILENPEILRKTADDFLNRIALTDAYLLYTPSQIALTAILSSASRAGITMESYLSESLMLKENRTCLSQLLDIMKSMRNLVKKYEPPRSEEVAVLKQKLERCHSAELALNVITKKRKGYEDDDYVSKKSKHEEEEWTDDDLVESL
CDK7, sequence (P51948 whole entry, further chain, canonical isoform): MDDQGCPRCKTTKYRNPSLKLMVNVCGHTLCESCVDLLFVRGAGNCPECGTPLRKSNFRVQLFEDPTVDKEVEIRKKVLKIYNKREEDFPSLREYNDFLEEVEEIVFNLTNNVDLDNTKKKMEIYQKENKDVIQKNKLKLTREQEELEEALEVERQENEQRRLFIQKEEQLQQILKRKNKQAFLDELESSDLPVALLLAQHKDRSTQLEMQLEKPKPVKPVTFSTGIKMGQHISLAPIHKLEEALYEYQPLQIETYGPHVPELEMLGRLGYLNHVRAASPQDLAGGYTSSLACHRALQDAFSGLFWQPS

[10] = test system: CLK; set-up: key: + is used to indicate the potency of the inhibitor; ++++ > +++ > ++ > +; + is used to indicate the potency of the inhibitor; ++++ > +++ > ++ > +; + is used to indicate the potency of the inhibitor; ++++ > +++ > ++ > +; + is used to indicate the potency of the inhibitor; ++++ > +++ > ++ > +; ◯ refers to compounds with inhibitory effects on the related isoform, but without specific value; conditions: cited from earlier work
[11] = test system: ACE2, TMPRSS2, and CTSL; experiment: mRNA levels in A549 cells (qRT-PCR); type: cell-based, human; conditions: 24 hr
Description: Cells were incubated with rhCHI3L1 from a commercial source (R&D Inc.) and rhCHI3L1 generated at Brown University (Brown) and compared to vehicle controls. mRNA was then extracted and the levels of mRNA for ACE2 and CTSL were evaluated by real time qRT-PCR. Levels were expressed in relationship to GAPDH controls. *p<0.05; **p<0.01 (Student's t-test).
A549 cells were incubated with the noted concentrations of rhCHI3L1 for the note amounts of time. The levels of mRNA encoding ACE2, TMPRSS2, and CTSL were assessed via qRT-PCR. The statistics compare cells incubated with vehicle control (nothing tested, NT) and cells incubated with 250 ng/ml of rhCHI3L1. […]
Total cellular RNA was obtained using TRIzol reagent (ThermoFisher Scientific) followed by RNA extraction using RNeasy Mini Kit (Qiagen, Germantown, MD) according to the manufacturer's instructions. mRNA was measured and used for real time (RT)-PCR as described previously.^79,80 The primer sequences used in these studies are summarized in Table 1. […]
In the first study, A549 cells were incubated with rhCHI3L1 from a commercial source (R&D Inc.) and rhCHI3L1 generated at Brown University (Brown). The cells were incubated for 24 hr with stimulation of rhCHI3L1 (500 ng/mL) at 37° C. mRNA was then extracted and the levels of mRNA for ACE2 and CTSL were evaluated by real time qRT-PCR and compared to vehicle controls. […]

[12] = test system: ACE2, TMPRSS2, and CTSL; experiment: mRNA levels in normal human small airway epithelial cells (qRT-PCR); type: cell-based; conditions: normal HSAEC, rhCHI3L1 500 ng/mL, 24 hours
Description: HSAEC were incubated with the noted concentrations of recombinant rhCHI3L1 for 24 hours. The levels of mRNA encoding ACE2, TMPRSS2, and CTSL were assessed via qRT-PCR. The levels are expressed in relationship to GAPDH controls. *p<0.05 (Student's t-test).
Total cellular RNA was obtained using TRIzol reagent (ThermoFisher Scientific) followed by RNA extraction using RNeasy Mini Kit (Qiagen, Germantown, MD) according to the manufacturer's instructions. mRNA was measured and used for real time (RT)-PCR as described previously.^79,80 The primer sequences used in these studies are summarized in Table 1. Ct values of the test genes were normalized to the internal housekeeping gene […].
In the present study, normal HSAEC were incubated with 0, 100 ng/mL, or 500 ng/mL of rhCHI3L1 for 24 hours at 37° C. The levels of mRNA encoding ACE2, TMPRSS2, and CTSL were assessed via qRT-PCR and expressed in relationship to GAPDH controls.

[13] = test system: pseudovirus containing the S protein (D614 and G614 variants); type: cell-based; conditions: Calu-3 cells, rCHI3L1 24 hours, GFP
[14] = test system: pseudovirus with the ancestral G614 S protein; type: cell-based, SARS-CoV-2
[15] = test system: ACE2; experiment: Immunocytochemical evaluation of ACE2 in Calu-3 cells; type: cell-based, human; conditions: CHI3L1 250 ng/mL; double labeled ICC
[16] = test system: pseudoviruses with delta S proteins; type: cell-based, SARS-CoV-2
[17] = Calu-3 cells, rhCHI3L1 250 ng/mL, 24 hours, vs vehicle

CDK1, sequence (P06493 whole entry, species assumed, canonical isoform): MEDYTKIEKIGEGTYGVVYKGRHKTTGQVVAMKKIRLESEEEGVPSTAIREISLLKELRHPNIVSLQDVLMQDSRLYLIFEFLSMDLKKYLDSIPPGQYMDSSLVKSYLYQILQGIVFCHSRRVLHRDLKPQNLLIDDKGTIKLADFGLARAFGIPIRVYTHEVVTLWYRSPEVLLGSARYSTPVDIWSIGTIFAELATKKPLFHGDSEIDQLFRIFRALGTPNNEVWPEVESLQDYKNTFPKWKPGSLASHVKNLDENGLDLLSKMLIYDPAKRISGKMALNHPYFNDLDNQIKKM
CDK1, sequence (P14635 whole entry partner, species assumed, canonical isoform): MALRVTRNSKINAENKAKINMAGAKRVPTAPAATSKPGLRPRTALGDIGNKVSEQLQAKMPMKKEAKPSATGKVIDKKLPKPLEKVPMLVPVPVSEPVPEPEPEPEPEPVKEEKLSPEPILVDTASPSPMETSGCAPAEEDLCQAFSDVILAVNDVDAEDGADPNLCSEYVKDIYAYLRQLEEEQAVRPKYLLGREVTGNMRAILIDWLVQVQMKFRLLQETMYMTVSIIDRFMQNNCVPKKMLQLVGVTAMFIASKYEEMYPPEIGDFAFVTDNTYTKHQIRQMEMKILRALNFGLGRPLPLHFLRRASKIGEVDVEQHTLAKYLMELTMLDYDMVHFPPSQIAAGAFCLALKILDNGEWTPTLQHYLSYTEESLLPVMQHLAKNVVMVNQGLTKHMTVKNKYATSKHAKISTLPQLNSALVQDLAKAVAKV

Molecule | Inhibitory potency CDK1 [1] | Inhibitory potency CDK4 [3] | Inhibitory potency CDK2 [6] | also measured
Cc1ncc(-c2ccnc(Nc3ccc(S(C)(=O)=O)cc3)n2)n1C(C)C [AZD5438] | +++ |  |  | Inhibitory potency CDK9 [2]: +++
O=C(NC1CCNCC1)c1[nH]ncc1NC(=O)c1c(Cl)cccc1Cl [AT7519 HCl] | ++ | ++ |  | Inhibitory potency CDK5 [4]: +++; Inhibitory potency CDK6 [5]: ++; Inhibitory potency CDK9 [2]: ++++
NU6027 | + |  |  | 
NU 6102 | +++ | + |  | 
PHA-767491 | ++ |  | ++ | Inhibitory potency CDK5 [4]: +; Inhibitory potency CDK9 [2]: +++
COc1c(O)cc(O)c2c(=O)cc(-c3ccccc3)oc12 [Wogonin] |  |  |  | Inhibitory potency CDK9 [2]: ◯
CN1CC[C@H](c2c(O)cc(O)c3c(=O)cc(-c4ccccc4Cl)oc23)[C@H](O)C1 [Flavopiridol] | +++ | +++ | +++ | ability of CHI3L1 to stimulate ACE2 mRNA accumulation [7]: potently inhibited; levels of basal ACE2 expression [7]: diminished; basal and CHI3L1-stimulated expression of TMPRSS2, CTSL and FURIN [8]: potently decreased; Inhibitory potency CDK6 [5]: ++; Inhibitory potency CDK7 [9]: +
Purvalanol B |  |  |  | Inhibitory potency CDK5 [4]: ++++
CCCCOc1c(C(=O)c2c(F)cc(C)cc2F)c[nH]c2nncc1-2 [BMS-265246] | ++++ | ++ | ++++ | 
NVP-LCQ195 | ++++ |  | +++ | Inhibitory potency CDK5 [4]: ++++; Inhibitory potency CDK9 [2]: ◯; Inhibitory potency CLK [10]: ◯
CC(C)CC(=O)Nc1[nH]nc2c1CN(C(=O)C1CCN(C)CC1)C2(C)C [PHA-793887] | ++ | ++ | ++++ | Inhibitory potency CDK5 [4]: ++++; Inhibitory potency CDK7 [9]: ++++; Inhibitory potency CDK9 [2]: ++
LDC000067 | + | + |  | Inhibitory potency CDK9 [2]: +++
Palbociclib Isethionate |  |  |  | Inhibitory potency CDK6 [5]: +++
rhCHI3L1: recombinant human CHI3L1 (chitinase 3 like 1) protein, from R&D Inc. or generated at Brown University |  |  |  | levels of mRNA encoding ACE2 [7, 17]: significantly upregulated; levels of mRNA encoding TMPRSS2, CTSL and FURIN [8, 17]: significantly upregulated; levels of mRNA encoding Ace2 and cathepsin L (CTSL) ([11]; rhCHI3L1 500 ng/mL, 37° C.): significantly upregulated; levels of mRNA encoding ACE2, TMPRSS2, and CTSL ([11]; rhCHI3L1 250 or 500 ng/mL): significantly upregulated; levels of mRNA encoding ACE2, TMPRSS2, and CTSL [12]: significantly upregulated; cellular integration of S proteins [13]: stimulated; uptake of pseudovirus [14]: potent stimulator; Calu-3 cell ACE2 accumulation [15]: augmented; delta pseudovirus infection [16]: augmented
CC(C)(C)c1cnc(CSc2cnc(NC(=O)C3CCNCC3)s2)o1 [SNS-032] | + |  |  | Inhibitory potency CDK5 [4]: +; Inhibitory potency CDK9 [2]: ++++
C[C@H]1CC[C@H](n2c3cnccc3c3cnc(Nc4ccc5c(n4)CCN(C(=O)CO)C5)nc32)CC1 [AMG-925] | + | ++++ |  | 
Ro-3306 | +++ |  |  | 
Kenpaulione | + |  | + | Inhibitory potency CDK5 [4]: +
Nc1nc(Nc2ccc(S(N)(=O)=O)cc2)nn1C(=O)c1c(F)cccc1F [JNJ-7706621] | ++++ | + | ++++ | Inhibitory potency CDK6 [5]: ++
COc1ccc(CNc2nc(N(CCO)CCO)nc3c2ncn3C(C)C)cc1 [CVT 313] | + | + | + | 
CNC(=O)c1nn(C)c2c1C(C)(C)Cc1cnc(Nc3ccc(N4CCN(C)CC4)cc3)nc1-2 [Milciclib] | + | ++ | +++ | Inhibitory potency CDK5 [4]: +; Inhibitory potency CDK7 [9]: ++
TG003 |  |  |  | Inhibitory potency CLK [10]: +++
NU2058 | + |  |  | 
ML167 |  |  |  | Inhibitory potency CLK [10]: ++
Cn1cc(-c2cnn3c(N)c(Br)c([C@@H]4CCCNC4)nc23)cn1 [MK-8776] |  |  | ++ | 
Purvalanol A |  | + |  | 
O=C(NC1CCNCC1)c1[nH]ncc1NC(=O)c1c(Cl)cccc1Cl [AT7519] |  |  |  | Inhibitory potency CDK7 [9]: +
CGP60474 | +++ |  | +++ | 
